Drawing on patent US20230092890A1, “1, 3, 4-Oxadiazole derivative compounds as histone deacetylase 6 inhibitor, and the pharmaceutical composition comprising the same” (Chong Kun Dang Pharmaceutical Corp., priority 2019, published 2023), this text covers IC50 for 17 molecules.

One assay deals with T1, HDAC6 human recombinant (Homo sapiens, UniProt Q9UBN7).
T1 construct: purchased Calbiochem 382180
T1 sequence (Q9UBN7 1-1215): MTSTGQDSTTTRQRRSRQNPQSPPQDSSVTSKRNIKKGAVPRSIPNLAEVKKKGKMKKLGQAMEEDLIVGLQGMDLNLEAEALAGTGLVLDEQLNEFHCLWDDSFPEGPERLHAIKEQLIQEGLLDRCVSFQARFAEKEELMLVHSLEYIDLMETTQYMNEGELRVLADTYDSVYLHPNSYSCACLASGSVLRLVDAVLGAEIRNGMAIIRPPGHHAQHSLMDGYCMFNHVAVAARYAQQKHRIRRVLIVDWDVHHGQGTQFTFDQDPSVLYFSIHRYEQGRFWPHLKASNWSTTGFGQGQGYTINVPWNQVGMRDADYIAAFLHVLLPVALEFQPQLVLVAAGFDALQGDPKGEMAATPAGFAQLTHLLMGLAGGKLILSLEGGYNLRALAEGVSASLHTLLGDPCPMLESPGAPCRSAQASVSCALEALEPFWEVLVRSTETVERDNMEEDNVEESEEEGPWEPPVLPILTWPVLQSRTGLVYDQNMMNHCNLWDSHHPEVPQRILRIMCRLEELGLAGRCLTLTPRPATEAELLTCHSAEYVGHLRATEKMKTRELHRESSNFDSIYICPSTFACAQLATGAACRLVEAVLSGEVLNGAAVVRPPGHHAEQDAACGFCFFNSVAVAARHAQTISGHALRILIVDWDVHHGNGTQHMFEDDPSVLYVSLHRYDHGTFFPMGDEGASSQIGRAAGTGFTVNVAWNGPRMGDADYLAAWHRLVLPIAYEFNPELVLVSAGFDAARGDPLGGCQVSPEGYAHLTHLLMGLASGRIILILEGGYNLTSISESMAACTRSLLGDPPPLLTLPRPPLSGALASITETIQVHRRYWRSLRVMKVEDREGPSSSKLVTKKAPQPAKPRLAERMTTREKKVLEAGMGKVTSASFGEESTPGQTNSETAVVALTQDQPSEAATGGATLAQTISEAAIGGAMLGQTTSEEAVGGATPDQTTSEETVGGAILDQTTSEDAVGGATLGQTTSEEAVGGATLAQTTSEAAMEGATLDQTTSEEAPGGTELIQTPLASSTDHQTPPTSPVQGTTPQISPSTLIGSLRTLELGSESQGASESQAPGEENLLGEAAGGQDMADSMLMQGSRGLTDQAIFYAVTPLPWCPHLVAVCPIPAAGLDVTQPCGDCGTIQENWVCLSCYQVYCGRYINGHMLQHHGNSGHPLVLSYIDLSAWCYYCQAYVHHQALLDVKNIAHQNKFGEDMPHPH
Description: HDAC enzyme activity inhibition (in vitro), HDAC6 assay. Format: biochemical. The note with it: samples at 0.1, 1, 10, 100 and 1000 nM; 37° C. 60 minutes; fluorescence Ex 390, Em 460; read-out: HDAC6 IC50. As for the experimental part:
A HDAC enzyme inhibitory capacity of a test material was measured by using HDAC1 Fluorimetric Drug Discovery Assay Kit (Enzolifesciences: BML-AK511) and HDAC6 human recombinant (Calbiochem: 382180). For a HDAC1 assay, samples were treated at a concentration of 100, 1000 and 10000 nM. […] After the above sample treatment, a reaction was continued at 37° C. for 60 minutes, then treated with a developer, and then subjected to a reaction at 37° C. for 30 minutes, after which fluorescence intensity (Ex 390, Em 460) was measured by using FlexStatin3 (Molecular device).

For a further assay, the target named is T2, HDAC1 (Homo sapiens, UniProt Q13547).
T2 construct: purchased Enzolifesciences BML-AK511
T2 sequence (Q13547 whole entry): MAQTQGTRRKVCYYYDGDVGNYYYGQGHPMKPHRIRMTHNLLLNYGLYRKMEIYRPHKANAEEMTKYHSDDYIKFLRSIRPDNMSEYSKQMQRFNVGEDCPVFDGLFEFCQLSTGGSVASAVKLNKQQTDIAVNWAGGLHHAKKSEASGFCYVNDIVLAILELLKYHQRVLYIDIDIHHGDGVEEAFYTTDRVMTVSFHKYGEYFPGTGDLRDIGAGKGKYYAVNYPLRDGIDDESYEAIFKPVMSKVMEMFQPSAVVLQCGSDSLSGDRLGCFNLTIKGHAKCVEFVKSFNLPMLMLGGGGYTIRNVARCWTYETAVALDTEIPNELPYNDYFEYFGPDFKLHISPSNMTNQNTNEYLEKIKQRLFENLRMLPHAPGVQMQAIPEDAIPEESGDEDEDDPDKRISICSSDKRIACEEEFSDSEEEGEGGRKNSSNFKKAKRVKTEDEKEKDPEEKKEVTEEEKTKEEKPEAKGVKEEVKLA
Description: HDAC enzyme activity inhibition (in vitro), HDAC1 Fluorimetric Drug Discovery Assay Kit. The settings on record: samples at 100, 1000 and 10000 nM; 37° C. 60 minutes; fluorescence Ex 390, Em 460; read-out: HDAC1 IC50. Format: biochemical. As for the experimental part: <Experimental Example 1> Identification of HDAC Enzyme Activity Inhibition (In Vitro)
A selective HDAC6 inhibitor is important for selectivity of HDAC1 inhibition, which is a cause of side effects, and thus HDAC1/6 enzyme selectivity and cell selectivity (HDAC1: histone acetylation/HDAC6: tubulin acetylation) were identified.
A HDAC enzyme inhibitory capacity of a test material was measured by using HDAC1 Fluorimetric Drug Discovery Assay Kit (Enzolifesciences: BML-AK511) and HDAC6 human recombinant (Calbiochem: 382180). For a HDAC1 assay, samples were treated at a concentration of 100, 1000 and 10000 nM. For a HDAC6 assay, samples were treated at a concentration of 0.1, 1, 10, 100 and 1000 nM. After the above sample treatment, a reaction was continued at 37° C. for 60 minutes, then treated with a developer, and then subjected to a reaction at 37° C. for 30 minutes, after which fluorescence intensity (Ex 390, Em 460) was measured by using FlexStatin3 (Molecular device).

By IC50 is commonly meant the concentration that inhibits the measured activity by half. Consider `CN1CCC(N2Cc3ccccc3N(Cc3ccc(-c4nnc(C(F)F)o4)cc3F)C2=O)CC1` [Compound 33, 1-(4-(5-(difluoromethyl)-1,3,4-oxadiazole-2-yl)-2-fluorobenzyl)-3-(1-methylpiperidine-4-yl)-3,4-dihydroquinazoline-2(1H)-one], for which the IC50 on HDAC6 human recombinant was 169 nM; on HDAC1, over 10000 nM.

`O=c1n(Cc2ccc(-c3nnc(C(F)F)o3)cc2F)c2ccccc2n1C1CCOCC1` [Compound 34, 1-(4-(5-(difluoromethyl)-1,3,4-oxadiazole-2-yl)-2-fluorobenzyl)-3-(tetrahydro-2H-pyran-4-yl)-1,3-dihydro-2H-benzo[d]imidazole-2-one]: the half-inhibitory concentration (IC50) on HDAC6 human recombinant was 235 nM; at HDAC1, over 10000 nM.

For the molecule `O=c1n(Cc2ccc(-c3nnc(C(F)F)o3)cc2F)c2ccccc2n1C1CCS(=O)(=O)CC1` [Compound 35, 1-(4-(5-(difluoromethyl)-1,3,4-oxadiazole-2-yl)-2-fluorobenzyl)-3-(1,1-dioxydotetrahydro-2H-thiopyran-4-yl)-1,3-dihydro-2H-benzo[d]imidazole-2-one], the IC50 on HDAC6 human recombinant is 203 nM; at HDAC1 it was over 10000 nM.

In the case of `CN(C)CCn1c(=O)n(Cc2ccc(-c3nnc(C(F)F)o3)cc2F)c2ccccc21` [Compound 36, 1-(4-(5-(difluoromethyl)-1,3,4-oxadiazole-2-yl)-2-fluorobenzyl)-3-(2-(dimethylamino)ethyl)-1,3-dihydro-2H-benzo[d]imidazole-2-one], the IC50 is 131 nM at HDAC6 human recombinant and over 10000 nM at HDAC1.

As for `O=c1n(Cc2ccc(-c3nnc(C(F)F)o3)cc2F)c2ccccc2n1C1COC1` [Compound 37, 1-(4-(5-(difluoromethyl)-1,3,4-oxadiazole-2-yl)-2-fluorobenzyl)-3-(oxetan-3-yl)-1,3-dihydro-2H-benzo[d]imidazole-2-one], the figures for the concentration for half-maximal inhibition (IC50) on HDAC6 human recombinant and at HDAC1 were 158 nM and over 10000 nM, respectively.

With `O=c1n(Cc2ccc(-c3nnc(C(F)F)o3)cc2F)c2ccccc2n1CC1CCN(C2COC2)CC1` [Compound 39, 1-(4-(5-(difluoromethyl)-1,3,4-oxadiazole-2-yl)-2-fluorobenzyl)-3-((1-(oxetan-3-yl)piperidine-4-yl)methyl)-1,3-dihydro-2H-benzo[d]imidazole-2-one], the half-maximal inhibitory concentration (IC50) on HDAC6 human recombinant is 167 nM; on HDAC1, over 10000 nM.

For `CCN1CCC(n2c(=O)n(Cc3ccc(-c4nnc(C(F)F)o4)cn3)c3ccc(F)cc32)CC1` [Compound 40, 1-((5-(5-(difluoromethyl)-1,3,4-oxadiazole-2-yl)pyridine-2-yl)methyl)-3-(1-ethylpiperidine-4-yl)-5-fluoro-1,3-dihydro-2H-benzo[d]imidazole-2-one], the 50% inhibitory concentration (IC50) was 155 nM at HDAC6 human recombinant and over 10000 nM at HDAC1.

On to `O=c1n(Cc2ccc(-c3nnc(C(F)F)o3)cn2)c2ccc(F)cc2n1C1CCN(C2COC2)CC1` [Compound 41, 1-((5-(5-(difluoromethyl)-1,3,4-oxadiazole-2-yl)pyridine-2-yl)methyl)-5-fluoro-3-(1-(oxetan-3-yl)piperidine-4-yl)-1,3-dihydro-2H-benzo[d]imidazole-2-one], for which the 50% inhibitory concentration (IC50) was 92 nM at HDAC6 human recombinant and over 10000 nM on HDAC1.

With `CC(=O)N1CCC(n2c(=O)n(Cc3ccc(-c4nnc(C(F)F)o4)cn3)c3ccc(F)cc32)CC1` [Compound 42, 3-(1-acetylpiperidine-4-yl)-1-((5-(5-(difluoromethyl)-1,3,4-oxadiazole-2-yl)pyridine-2-yl)methyl)-5-fluoro-1,3-dihydro-2H-benzo[d]imidazole-2-one], the IC50 on HDAC6 human recombinant was 106 nM; on HDAC1 it was over 10000 nM.

Take `CN1CCC(n2c(=O)n(Cc3ccc(-c4nnc(C(F)F)o4)cn3)c3ccc(F)cc32)CC1` [Compound 43, 1-((5-(5-(difluoromethyl)-1,3,4-oxadiazole-2-yl)pyridine-2-yl)methyl)-5-fluoro-3-(1-methylpiperidine-4-yl)-1,3-dihydro-2H-benzo[d]imidazole-2-one]: the concentration for half-maximal inhibition (IC50) at HDAC6 human recombinant was 121 nM; on HDAC1, over 10000 nM.

`O=c1n(Cc2ccc(-c3nnc(C(F)F)o3)cn2)c2ccc(F)cc2n1C1CCN(C2CCOCC2)CC1` [Compound 44, 1-((5-(5-(difluoromethyl)-1,3,4-oxadiazole-2-yl)pyridine-2-yl)methyl)-5-fluoro-3-(1-(tetrahydro-2H-pyran-4-yl)piperidine-4-yl)-1,3-dihydro-2H-benzo[d]imidazole-2-one]: the IC50 at HDAC6 human recombinant was 76 nM; on HDAC1 it was over 10000 nM.

With `O=c1n(Cc2ccc(-c3nnc(C(F)F)o3)cn2)c2ccc(F)cc2n1C1CCN(C2CCC2)CC1` [Compound 45, 3-(1-cyclobutylpiperidine-4-yl)-1-((5-(5-(difluoromethyl)-1,3,4-oxadiazole-2-yl)pyridine-2-yl)methyl)-5-fluoro-1,3-dihydro-2H-benzo[d]imidazole-2-one], the figures for the IC50 on HDAC6 human recombinant and at HDAC1 were 121 nM and over 10000 nM, respectively.

Regarding `CC(C)N1CCC(n2c(=O)n(Cc3ccc(-c4nnc(C(F)F)o4)cn3)c3ccc(F)cc32)CC1` [Compound 46, 1-((5-(5-(difluoromethyl)-1,3,4-oxadiazole-2-yl)pyridine-2-yl)methyl)-5-fluoro-3-(1-isopropylpiperidine-4-yl)-1,3-dihydro-2H-benzo[d]imidazole-2-one], the IC50 at HDAC6 human recombinant is 103 nM; at HDAC1, over 10000 nM.

With `O=c1n(Cc2ccc(-c3nnc(C(F)F)o3)cn2)c2ccc(F)cc2n1C1CCN(C2CCCCC2)CC1` [Compound 47, 3-(1-cyclohexylpiperidine-4-yl)-1-((5-(5-(difluoromethyl)-1,3,4-oxadiazole-2-yl)pyridine-2-yl)methyl)-5-fluoro-1,3-dihydro-2H-benzo[d]imidazole-2-one], the IC50 at HDAC6 human recombinant was 126 nM; at HDAC1, over 10000 nM.

For `CN1CCC(n2c(=O)n(Cc3ccc(-c4nnc(C(F)F)o4)cn3)c3cc(F)ccc32)CC1` [Compound 48, 3-((5-(5-(difluoromethyl)-1,3,4-oxadiazole-2-yl)pyridine-2-yl)methyl)-5-fluoro-1-(1-methylpiperidine-4-yl)-1,3-dihydro-2H-benzo[d]imidazole-2-one], the figures for the IC50 at HDAC6 human recombinant and on HDAC1 were 22 nM and over 10000 nM, respectively.

For `O=c1n(Cc2ccc(-c3nnc(C(F)F)o3)cn2)c2cc(F)ccc2n1C1CCN(C2CC3(COC3)C2)CC1` [Compound 49, 1-(1-(2-oxaspiro[3.3]heptane-6-yl)piperidine-4-yl)-3-((5-(5-(difluoromethyl)-1,3,4-oxadiazole-2-yl)pyridine-2-yl)methyl)-5-fluoro-1,3-dihydro-2H-benzo[d]imidazole-2-one], the IC50 at HDAC6 human recombinant is 35 nM; on HDAC1 it was over 10000 nM.

With `CCN1CCC(n2c(=O)n(Cc3ccc(-c4nnc(C(F)F)o4)cn3)c3cc(F)ccc32)CC1` [Compound 50, 3-((5-(5-(difluoromethyl)-1,3,4-oxadiazole-2-yl)pyridine-2-yl)methyl)-1-(1-ethylpiperidine-4-yl)-5-fluoro-1,3-dihydro-2H-benzo[d]imidazole-2-one], the half-inhibitory concentration (IC50) on HDAC6 human recombinant was 39 nM; at HDAC1, over 10000 nM.
